Reference: patent US9932392B2, “Prevention of infection” (priority 2012, dated 2018)

Key:
[1] = system: toxinogenic C. difficile strain 10465; assay: Primary prevention of C. difficile infection (mouse model); format: in vivo, C57BL/6 mice; conditions: po gavage day -1 to 3 (5 doses), FIG. 6
Protocol: (§1) C57BL/6 mice were housed in cages with free access to chow (Purina 5000) and tap water. Animals were treated with a mixture of oral antibiotics (kanamycin, gentamicin, colistin, metronidazole, and vancomycin) for 3 days as previously described (Chen et al (2008) Gastroenterology 135: 1984-92). Two days later, they were given parenteral clindamycin phosphate (10 mG/kg s.c.) [Day −1]. One day later [Day 0] they were challenged by gavage with 0.5×10^5 cfu of toxinogenic C. difficile strain 10465. A moderate to fulminant colitis developed 1 to 5 days after the administration of C. difficile. Untreated, this progresses rapidly into severe and fatal colitis in the majority of animals. The test compounds (suspended in carbonate buffer) were administered to groups at the dosage levels as shown in Table 1 (n=10 per group except group 4). Dosing (by gavage) started 1 day before C. difficile challenge [Day −1] and continued daily for 5 days.
(§2) Animals were weighed daily and observed three times daily for morbidity and presence or absence of severe CDI with diarrhea. Animals judged to be in a moribund state [extended period of weight loss progressing to an emaciated state, anorexia for 24-48 hrs, prolonged lethargy (more than 3 days), signs of paralysis, skin erosions or trauma, hunched posture, distended abdomen] were euthanized by a single injection of sodium pentobarbital. […]

[2] = system: toxinogenic C. difficile strain 10465; assay: Prevention of recurrence of C. difficile infection after vancomycin (mouse model); format: in vivo, C57BL/6 mice; conditions: vancomycin day -1 to 3 (5 doses), then Ig 400 mG/kg po day 4 to 8 (5 doses); observation until day 28; FIG. 7
Protocol: as §1, §2

SMILES: CN[C@H](CC(C)C)C(=O)N[C@H]1C(=O)N[C@@H](CC(N)=O)C(=O)N[C@H]2C(=O)N[C@H]3C(=O)N[C@H](C(=O)N[C@H](C(=O)O)c4cc(O)cc(O)c4-c4cc3ccc4O)[C@H](O)c3ccc(c(Cl)c3)Oc3cc2cc(c3O[C@@H]2O[C@H](CO)[C@@H](O)[C@H](O)[C@H]2O[C@H]2C[C@](C)(N)[C@H](O)[C@H](C)O2)Oc2ccc(cc2Cl)[C@H]1O [Vancomycin]
- fraction of animals with recurrence of C. difficile infection after stopping treatment [1]: 60%
- survival rate ([1]; vancomycin 50 mG/kg, IgA 400 mG/kg): 40%
- rate of recurrence of infection (animals) [2]: 6 out of 10
